Results from patent US6737383B1, “Herbicidal oxadiazolidines” (priority 1999, dated 2004).

Tests used:
[1] = test system: purple nutsedge; experiment: Test B pre/postemergence purple nutsedge; type: in vivo, Cyperus rotundus
Summary of the method: (§1)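 Test chemicals in a non-phytotoxic solvent mixture with surfactant were sprayed preemergence onto planted seeds and postemergence onto plants 2 to 18 cm tall (1- to 4-leaf stage). After twelve to sixteen days in a greenhouse, injury was visually rated against untreated controls from 0 (no effect) to 10 (complete control).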

[2] = test system: morningglory; experiment: Test B pre/postemergence morningglory; type: in vivo, Ipomoea hederacea
Summary of the method: as §1

[3] = test system: rape; experiment: Test B pre/postemergence rape; type: in vivo, Brassica napus
Summary of the method: as §1

[4] = test system: soybean; experiment: Test B pre/postemergence soybean; type: in vivo, Glycine max
Summary of the method: as §1

[5] = test system: wheat; experiment: Test B pre/postemergence wheat; type: in vivo, Triticum aestivum
Summary of the method: as §1

[6] = test system: crabgrass; experiment: Test B pre/postemergence crabgrass; type: in vivo, Digitaria sanguinalis
Summary of the method: as §1

[7] = test system: pigweed; experiment: Test B pre/postemergence pigweed; type: in vivo, Amaranthus retroflexus
Summary of the method: as §1

[8] = test system: sugar beet; experiment: Test B pre/postemergence sugar beet; type: in vivo, Beta vulgaris
Summary of the method: as §1

[9] = test system: corn; experiment: Test B pre/postemergence corn; type: in vivo, Zea mays
Summary of the method: as §1

[10] = test system: surinam grass; experiment: Test B pre/postemergence surinam grass; type: in vivo, Brachiaria decumbens
Summary of the method: as §1

[11] = test system: giant foxtail; experiment: Test B pre/postemergence giant foxtail; type: in vivo, Setaria faberii
Summary of the method: as §1

[12] = test system: cocklebur; experiment: Test B pre/postemergence cocklebur; type: in vivo, Xanthium strumarium
Summary of the method: as §1

[13] = test system: wild oat; experiment: Test B pre/postemergence wild oat; type: in vivo, Avena fatua
Summary of the method: as §1

[14] = test system: blackgrass; experiment: Test B pre/postemergence blackgrass; type: in vivo, Alopecurus myosuroides
Summary of the method: as §1

[15] = test system: bedstraw; experiment: Test B pre/postemergence bedstraw; type: in vivo, Galium aparine
Summary of the method: as §1

[16] = test system: velvetleaf; experiment: Test B pre/postemergence velvetleaf; type: in vivo, Abutilon theophrasti
Summary of the method: as §1

[17] = Preemergence, Rate 62 g/ha, scale of 0 to 10 where 0 is no effect and 10 is complete control
[18] = Preemergence, Rate 250 g/ha, scale of 0 to 10 where 0 is no effect and 10 is complete control
[19] = Preemergence, Rate 500 g/ha, scale of 0 to 10 where 0 is no effect and 10 is complete control
[20] = Rate 62 g/ha, Postemergence, scale 0 to 10, 0 no effect, 10 complete control
[21] = Rate 125 g/ha, Postemergence, scale of 0 to 10 where 0 is no effect and 10 is complete control
[22] = Rate 125 g/ha, Preemergence, scale of 0 to 10 where 0 is no effect and 10 is complete control
[23] = Rate 250 g/ha, Postemergence, scale of 0 to 10 where 0 is no effect and 10 is complete control
[24] = Rate 500 g/ha, Postemergence, scale 0 to 10, 0 no effect, 10 complete control

`CC(=O)OCn1c(=O)on(C(=O)N(c2ccc(F)cc2)C(C)C)c1=O` [Compound 292] was tested, and the “Nutsedge plant response rating” value [1, 17] was 0, the “Nutsedge plant response rating” value [1, 18] was 0 and the “Plant response rating, Nutsedge” value [1, 19] was 0. For the same compound, the “Nutsedge plant response rating” value [1, 20] was 0, the “Nutsedge plant response rating” value [1, 21] was 0 and the “Nutsedge plant response rating” value [1, 22] was 0. For the same compound, the “Plant response rating, Nutsedge” value [1, 23] was 0, the “Morningglory plant response rating” value [2, 17] was 0 and the “Morningglory plant response rating” value [2, 18] was 0. For the same compound, the “Plant response rating, Morningglory” value [2, 19] was 0, the “Morningglory plant response rating” value [2, 20] was 0 and the “Morningglory plant response rating” value [2, 21] was 1. For the same compound, the “Morningglory plant response rating” value [2, 22] was 0, the “Plant response rating, Morningglory” value [2, 23] was 2 and the “Rape plant response rating” value [3, 17] was 0. The “Rape plant response rating” value [3, 18] was 0, the “Plant response rating, Rape” value [3, 19] was 0 and the “Rape plant response rating” value [3, 20] was 0. The “Rape plant response rating” value [3, 21] was 0, the “Rape plant response rating” value [3, 22] was 0 and the “Plant response rating, Rape” value [3, 23] was 0. For the same compound, the “Soybean plant response rating” value [4, 17] was 0, the “Soybean plant response rating” value [4, 18] was 0 and the “Plant response rating, Soybean” value [4, 19] was 0. For the same compound, the “Soybean plant response rating” value [4, 20] was 0, the “Soybean plant response rating” value [4, 21] was 0 and the “Soybean plant response rating” value [4, 22] was 0. For the same compound, the “Plant response rating, Soybean” value [4, 23] was 1, the “Wheat plant response rating” value [5, 17] was 0 and the “Wheat plant response rating” value [5, 18] was 0. The “Plant response rating, Wheat” value [5, 19] was 0, the “Wheat plant response rating” value [5, 20] was 0 and the “Wheat plant response rating” value [5, 21] was 0. The “Wheat plant response rating” value [5, 22] was 0, the “Plant response rating, Wheat” value [5, 23] was 0 and the “Crabgrass plant response rating” value [6, 17] was 0. The “Crabgrass plant response rating” value [6, 18] was 0, the “Plant response rating, Crabgrass” value [6, 19] was 0 and the “Crabgrass plant response rating” value [6, 20] was 0. The “Crabgrass plant response rating” value [6, 21] was 0, the “Crabgrass plant response rating” value [6, 22] was 0 and the “Plant response rating, Crabgrass” value [6, 23] was 0. For the same compound, the “Redroot pigweed plant response rating” value [7, 17] was 0, the “Redroot pigweed plant response rating” value [7, 18] was 0 and the “Plant response rating, Redroot pigweed” value [7, 19] was 0. For the same compound, the “Redroot pigweed plant response rating” value [7, 20] was 0, the “Redroot pigweed plant response rating” value [7, 21] was 0 and the “Redroot pigweed plant response rating” value [7, 22] was 0. The “Plant response rating, Redroot pigweed” value [7, 23] was 0, the “Sugarbeets plant response rating” value [8, 17] was 0 and the “Sugarbeets plant response rating” value [8, 18] was 0. The “Plant response rating, Sugarbeets” value [8, 19] was 0, the “Sugarbeets plant response rating” value [8, 20] was 0 and the “Sugarbeets plant response rating” value [8, 21] was 0. For the same compound, the “Sugarbeets plant response rating” value [8, 22] was 0, the “Plant response rating, Sugarbeets” value [8, 23] was 0 and the “Corn plant response rating” value [9, 17] was 0. The “Corn plant response rating” value [9, 18] was 0, the “Plant response rating, Corn” value [9, 19] was 0 and the “Corn plant response rating” value [9, 20] was 0. For the same compound, the “Corn plant response rating” value [9, 21] was 0, the “Corn plant response rating” value [9, 22] was 0 and the “Plant response rating, Corn” value [9, 23] was 0. The “Corn plant response rating” value [9, 24] was 0, the “B. signalgrass plant response rating” value [10, 17] was 0 and the “B. signalgrass plant response rating” value [10, 18] was 0. The “Plant response rating, B. signalgrass” value [10, 19] was 0, the “B. signalgrass plant response rating” value [10, 20] was 0 and the “B. signalgrass plant response rating” value [10, 21] was 0. For the same compound, the “B. signalgrass plant response rating” value [10, 22] was 0, the “Plant response rating, B. signalgrass” value [10, 23] was 0 and the “B. signalgrass plant response rating” value [10, 24] was 0. The “Giant foxtail plant response rating” value [11, 17] was 0, the “Giant foxtail plant response rating” value [11, 18] was 0 and the “Plant response rating, Giant foxtail” value [11, 19] was 0. The “Giant foxtail plant response rating” value [11, 20] was 0, the “Giant foxtail plant response rating” value [11, 21] was 0 and the “Giant foxtail plant response rating” value [11, 22] was 0. The “Plant response rating, Giant foxtail” value [11, 23] was 0, the “Cocklebur plant response rating” value [12, 17] was 0 and the “Cocklebur plant response rating” value [12, 18] was 0. For the same compound, the “Plant response rating, Cocklebur” value [12, 19] was 0, the “Cocklebur plant response rating” value [12, 20] was 0 and the “Cocklebur plant response rating” value [12, 21] was 0. The “Cocklebur plant response rating” value [12, 22] was 0, the “Plant response rating, Cocklebur” value [12, 23] was 0 and the “Cocklebur plant response rating” value [12, 24] was 0. For the same compound, the “Wild oats plant response rating” value [13, 17] was 0, the “Wild oats plant response rating” value [13, 18] was 0 and the “Plant response rating, Wild oats” value [13, 19] was 0. The “Wild oats plant response rating” value [13, 20] was 0, the “Wild oats plant response rating” value [13, 21] was 0 and the “Plant response rating, Wild oats” value [13, 23] was 0. For the same compound, the “Blackgrass plant response rating” value [14, 17] was 0, the “Blackgrass plant response rating” value [14, 18] was 0 and the “Plant response rating, Blackgrass” value [14, 19] was 0. For the same compound, the “Blackgrass plant response rating” value [14, 20] was 0, the “Blackgrass plant response rating” value [14, 21] was 0 and the “Blackgrass plant response rating” value [14, 22] was 0. The “Plant response rating, Blackgrass” value [14, 23] was 0, the “Blackgrass plant response rating” value [14, 24] was 0 and the “Bedstraw plant response rating” value [15, 17] was 0. The “Bedstraw plant response rating” value [15, 18] was 0, the “Plant response rating, Bedstraw” value [15, 19] was 0 and the “Bedstraw plant response rating” value [15, 20] was 0. The “Bedstraw plant response rating” value [15, 21] was 0, the “Bedstraw plant response rating” value [15, 22] was 0 and the “Plant response rating, Bedstraw” value [15, 23] was 0. The “Bedstraw plant response rating” value [15, 24] was 0, the “Velvetleaf plant response rating” value [16, 17] was 0 and the “Velvetleaf plant response rating” value [16, 18] was 0. For the same compound, the “Plant response rating, Velvetleaf” value [16, 19] was 0, the “Velvetleaf plant response rating” value [16, 20] was 0 and the “Velvetleaf plant response rating” value [16, 21] was 0. The “Velvetleaf plant response rating” value [16, 22] was 0 and the “Plant response rating, Velvetleaf” value [16, 23] was 0.
